# Target: T1, Hepatic Lipase (Homo sapiens, UniProt P11150)
# T1 sequence (P11150 23-499): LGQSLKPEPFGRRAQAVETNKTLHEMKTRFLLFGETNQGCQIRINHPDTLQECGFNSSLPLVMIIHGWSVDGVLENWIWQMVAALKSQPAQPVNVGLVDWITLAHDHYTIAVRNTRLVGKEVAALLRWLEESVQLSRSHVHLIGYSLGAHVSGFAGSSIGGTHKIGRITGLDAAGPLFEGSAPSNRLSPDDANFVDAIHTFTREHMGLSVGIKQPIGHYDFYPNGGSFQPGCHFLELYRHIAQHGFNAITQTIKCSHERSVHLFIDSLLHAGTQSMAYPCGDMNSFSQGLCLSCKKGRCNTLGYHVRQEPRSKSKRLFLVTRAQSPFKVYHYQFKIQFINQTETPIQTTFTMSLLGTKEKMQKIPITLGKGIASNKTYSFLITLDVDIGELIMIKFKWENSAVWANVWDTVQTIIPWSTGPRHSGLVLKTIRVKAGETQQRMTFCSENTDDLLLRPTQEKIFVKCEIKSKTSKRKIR
# Experiment: Hydrolysis of thioPEG and thioPC substrates by Hepatic Lipase (papain thiol detection system, FIG. 1)
# Type: biochemical
# Settings: 0.5 mM thioPEG (enzyme diluted 100-5000 fold), 1.0 mM thioPC (enzyme diluted 1-64 fold)
# Procedure: Hepatic Lipase enzyme was diluted 1, 32 or 64 fold for thioPC and 100, 500, 1000 or 5000 fold for thioPEG. Hydrolysis was measured by the papain thiol detection system (discussed below). […] Data curve I represents 0.5 mM thioPEG and Data Curve II represents 1.0 mM thioPC.
# The invention also has the additional advantage of requiring fewer incubation periods in order to obtain detectable color. For example as shown in Scheme D below, thioPC substrate requires a reaction coupled with an enzymatic detection process for the liberated thiol-lysophospholipid which has two additional incubation periods in the papain system. L-BAPNA is an abbreviation for N-benzoyl-L-arginine, p-nitroanilide, hydrochloride.
# In Scheme E, below, thioPC is combined with hepatic lipase and incubated for about 30 minutes yielding a free-thiol lysophospholipid. […] Activated papain-SH enzyme is combined with a coloring agent, L-BAPNA, and incubated for 60 minutes yielding a colored product, p-nitro aniline. ThioPEG substrate is an improvement since it requires only a single incubation period to yield detectable color. [drawing 12]
row,hydrolysis of substrate by Hepatic Lipase (Optical Density at 410 nM vs Relative Enzyme Concentration),Compound
1,hydrolyzed much faster than thioPC,"CCCCCCCCCC(=O)O[C@@H](COP(=O)(O)OCCO)CSC(=O)CCCCCCCCC [thioPEG, (1-Decanoylthio-1-deoxy-2-decanoyl-sn-glycero-3-phosphoryl) ethylene glycol]"
2,much more slowly,didecanoyl-thio-phosphatidylcholine [thioPC]
